Publication PMC10713630, “Elucidation of the structural basis for ligand binding and translocation in conserved insect odorant receptor co-receptors” (Nature Communications, 2023)
“And” between values parts separate entries of the source, which are not always exact repeats. Equal entries are not always repeated. “Also recorded” adds a separate entry of the source.

How the values were obtained:
[1] = target: DmelOrco W150A (Drosophila melanogaster, UniProt Q9VNB5, W150A); experiment: TEVC recording of VUAA1-induced current, DmelOrco W150A in Xenopus oocytes; assay type: cell-based; parameters: VUAA1-induced current, W150A: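 current amplitude in µA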
Text: (§1) All Orco gene sequences were optimized[63] for protein expression in Xenopus laevis oocytes with the GenSmartTM Codon optimization Tool and subcloned into a pGEMHE-derived vector. The wildtype gene of Drosophila melanogaster Orco (DmelOrco) was synthesized by Genscript and subcloned with XmaI/XhoI cloning sites. Site-directed mutagenesis of DmelOrco was done by PCR with the Q5® site directed mutagenesis kit (NEB) using primers optimized with the NEBase Changer online tool and following the supplier’s protocol. After transformation of commercial competent bacteria (XL10 Gold) by standard heat-shock protocol and overnight culture in ampicillin-containing LB plates, positive clones were identified by electrophoretic restriction profile and external sequencing (Genewiz). DNAs of positive clones were amplified with Qiagen MidiPrep Kit and the ORF was fully sequenced. For in vitro transcription, DNAs were linearized with restriction enzyme NotI that cuts a unique site in the 3′ region of the polyA tail. […] DNA and RNA were analyzed by agarose-gel electrophoresis and quantified by spectrophotometry. […]
(§2) Whole cell currents were recorded with the two-electrode voltage-clamp (TEVC) technique with the HiClamp robot (MultiChannel System). […] Data were extracted with M. Vivaudou’s programs[65] and statistically analyzed with Prism 8 (Graphpad).

[2] = test system: non-injected oocytes; experiment: TEVC recording, negative control (NC) oocytes, non-injected or water-injected; assay type: cell-based, Xenopus laevis; conditions: Fig.4b; individual oocytes; in µA
Method: (§3) Xenopus laevis oocytes were prepared, as previously described. Briefly, oocytes were defolliculated after surgical retrieval by type 1 A collagenase over 2-3 h under smooth horizontal agitation. They were manually selected and incubated at 19 °C in modified-Barth’s solution (1 mM KCl, 0.82 mM MgSO4, 88 mM NaCl, 2.4 mM NaHCO3, 0.41 mM CaCl2, Ca(NO3)2 0.3 mM, 16 mM HEPES, pH 7.4) supplemented with 100 U mL^−1 of penicillin and streptomycin and 0.1 mg mL^−1 of gentamycin. Each oocyte was micro-injected with the Nanoject instrument (Drummond) with 50 nL of 20 ng of mRNA coding for the Orco of interest. Injected oocytes were incubated individually in 96-well plates for 4 days at 19 °C in the same buffer. Different batches of oocytes have been tested per construct. The results of the mutants of interest have been confirmed by a second set of experiments comparing the amplitudes with WT in the same day and from the same batch of oocytes (Supplementary Fig. 11).
Whole cell currents were recorded with the two-electrode voltage-clamp (TEVC) technique with the HiClamp robot (MultiChannel System). Microelectrodes were filled with 3 M KCl. The high K^+ buffer used for recordings was composed of 91 mM KCl, 1 mM MgCl2, 1.8 mM CaCl2, 5 mM HEPES, pH 7.4. […] Data were extracted with M. Vivaudou’s programs[65] and statistically analyzed with Prism 8 (Graphpad).

[3] = target: DmelOrco Y400S (Drosophila melanogaster, UniProt Q9VNB5, Y400S); experiment: TEVC recording of VUAA1-induced current, DmelOrco Y400S in Xenopus oocytes; assay type: cell-based; conditions: 500 µM VUAA1, TEVC
Text: as §1, §2

[4] = target: DmelOrco F84A (Drosophila melanogaster, UniProt Q9VNB5, F84A); experiment: TEVC recording of VUAA1-induced current, DmelOrco F84A in Xenopus oocytes; assay type: cell-based
Text: (§4) All Orco gene sequences were optimized[63] for protein expression in Xenopus laevis oocytes with the GenSmartTM Codon optimization Tool and subcloned into a pGEMHE-derived vector. The wildtype gene of Drosophila melanogaster Orco (DmelOrco) was synthesized by Genscript and subcloned with XmaI/XhoI cloning sites. Site-directed mutagenesis of DmelOrco was done by PCR with the Q5® site directed mutagenesis kit (NEB) using primers optimized with the NEBase Changer online tool and following the supplier’s protocol. After transformation of commercial competent bacteria (XL10 Gold) by standard heat-shock protocol and overnight culture in ampicillin-containing LB plates, positive clones were identified by electrophoretic restriction profile and external sequencing (Genewiz). DNAs of positive clones were amplified with Qiagen MidiPrep Kit and the ORF was fully sequenced. For in vitro transcription, DNAs were linearized with restriction enzyme NotI that cuts a unique site in the 3′ region of the polyA tail. The linearized DNAs were purified by the standard phenol:chloroform extraction method and transcribed into mRNA using the T7 ultra mMessage mMachine kit (Thermo Fisher Scientific). mRNAs were purified with the NucleoSpin RNA plus XS kit (Machery-Nagel). DNA and RNA were analyzed by agarose-gel electrophoresis and quantified by spectrophotometry.
Xenopus laevis oocytes were prepared, as previously described. Briefly, oocytes were defolliculated after surgical retrieval by type 1 A collagenase over 2-3 h under smooth horizontal agitation. They were manually selected and incubated at 19 °C in modified-Barth’s solution (1 mM KCl, 0.82 mM MgSO4, 88 mM NaCl, 2.4 mM NaHCO3, 0.41 mM CaCl2, Ca(NO3)2 0.3 mM, 16 mM HEPES, pH 7.4) supplemented with 100 U mL^−1 of penicillin and streptomycin and 0.1 mg mL^−1 of gentamycin. […]
as §2

[5] = target: DmelOrco V206W (Drosophila melanogaster, UniProt Q9VNB5, V206W); experiment: TEVC recording of VUAA1-induced current, DmelOrco V206W in Xenopus oocytes; assay type: cell-based; parameters: VUAA1-induced current, V206W: unit not given here; conditions: for VUAA1-induced current, V206W: individual oocytes
Text: as §4, §3
(§5) Whole cell currents were recorded with the two-electrode voltage-clamp (TEVC) technique with the HiClamp robot (MultiChannel System). Microelectrodes were filled with 3 M KCl. The high K^+ buffer used for recordings was composed of 91 mM KCl, 1 mM MgCl2, 1.8 mM CaCl2, 5 mM HEPES, pH 7.4. Membrane voltage was clamped to −50 mV and VUAA1 was applied for 60 s. Data were extracted with M. Vivaudou’s programs[65] and statistically analyzed with Prism 8 (Graphpad).

[6] = target: DmelOrco M210W (Drosophila melanogaster, UniProt Q9VNB5, M210W); experiment: TEVC recording of VUAA1-induced current, DmelOrco M210W in Xenopus oocytes; assay type: cell-based
Text: as §4, §3, §5

DmelOrco V206W, sequence (Q9VNB5 whole entry V206W, the tested form may be a part): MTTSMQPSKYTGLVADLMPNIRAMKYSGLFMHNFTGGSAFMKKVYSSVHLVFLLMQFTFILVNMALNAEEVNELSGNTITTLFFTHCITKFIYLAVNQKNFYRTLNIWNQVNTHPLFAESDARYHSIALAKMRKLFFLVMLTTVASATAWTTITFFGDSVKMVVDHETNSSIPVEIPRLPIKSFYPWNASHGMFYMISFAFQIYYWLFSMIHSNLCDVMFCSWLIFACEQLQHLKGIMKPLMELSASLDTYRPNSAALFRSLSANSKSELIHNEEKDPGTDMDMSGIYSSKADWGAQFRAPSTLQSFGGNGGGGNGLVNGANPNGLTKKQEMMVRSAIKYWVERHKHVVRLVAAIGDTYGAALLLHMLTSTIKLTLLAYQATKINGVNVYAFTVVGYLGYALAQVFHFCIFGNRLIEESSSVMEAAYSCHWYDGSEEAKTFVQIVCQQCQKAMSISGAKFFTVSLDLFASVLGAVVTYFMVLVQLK
DmelOrco F84A, sequence (Q9VNB5 whole entry F84A, the tested form may be a part): as the sequence (Q9VNB5 whole entry V206W, the tested form may be a part) above, with F84A, W206V counted along it
DmelOrco W150A, sequence (Q9VNB5 whole entry W150A, the tested form may be a part): as the sequence (Q9VNB5 whole entry V206W, the tested form may be a part) above, with W150A, W206V counted along it
DmelOrco M210W, sequence (Q9VNB5 whole entry M210W, the tested form may be a part): as the sequence (Q9VNB5 whole entry V206W, the tested form may be a part) above, with W206V, M210W counted along it
DmelOrco Y400S, sequence (Q9VNB5 whole entry Y400S, the tested form may be a part): as the sequence (Q9VNB5 whole entry V206W, the tested form may be a part) above, with W206V, Y400S counted along it

CCc1ccc(NC(=O)CSc2nnc(-c3cccnc3)n2CC)cc1 [VUAA1, N-(4-ethylphenyl)−2-((4-ethyl-5-(3-pyridinyl)−4H-1,2,4-triazol-3-yl)thio)acetamide]
Response to VUAA1 compared with WT ([1]; 500 µM VUAA1, TEVC, W150A): did not significantly affect the amplitude of activation
VUAA1-induced current, W150A ([1]; Fig.4b, individual oocytes): 4.32 and 3.86 and 5.79 and 2.71 and 5.07 and 2.76 and 2.23 and 2.97 and 2.04 and 1.54 and 0.79 and 4.84 and 4.06 and 8
VUAA1-induced current, NC [2]: 0.05 and 0.03 and 0.3 and 0.19 and 0.39 and 0.02
Response to VUAA1 compared with WT [3]: did not significantly change the response
EC50 [4]: 105 µM
Current induced by VUAA1 (median) ([4]; 500 µM VUAA1, TEVC, F84A): 0.68 µA
Imax ([4]; concentration-effect curve of VUAA1, TEVC, F84A): 1.01 µA
Response to VUAA1 compared with WT ([5]; 500 µM VUAA1, TEVC, V206W): significantly reduced or abolished the activation; also recorded: significant decrease in the response
VUAA1-induced current, V206W ([5]; Fig.4b): 0.24 and 0.29 and 1.03 and 0.65 and 0.59 and 0.7 and 0.64 and 0.44 and 0.27
VUAA1-induced current, V206W ([5]; Fig.4i dose-response, VUAA1 10 µM (Log(M) -5)): 0.05 and 0.36 and 0.03 and 0.04 (2×) and 0.02 (2×) and 0.01
VUAA1-induced current, V206W ([5]; Fig.4i dose-response, VUAA1 25 µM (Log(M) -4.6)): 0.02 (2×) and 0.37 and 0.05 and 0.04 and 0.03 (3×)
VUAA1-induced current, V206W ([5]; Fig.4i dose-response, VUAA1 50 µM (Log(M) -4.3)): 0.01 and 0.48 and 0.1 and 0.04 (2×) and 0.05 (2×) and 0.03
VUAA1-induced current, V206W ([5]; Fig.4i dose-response, VUAA1 100 µM (Log(M) -4)): 0.01 and 0.59 and 0.18 and 0.05 and 0.19 and 0 and 0.22 and 0.1
VUAA1-induced current, V206W ([5]; Fig.4i dose-response, VUAA1 500 µM (Log(M) -3.3)): 0.07 (2×) and 0.56 and 0.2 and 0.4 and 0.09 and 0.5 and 0.18
VUAA1-induced current, V206W ([5]; Fig.4i dose-response, VUAA1 1000 µM (Log(M) -3)): 0.12 and 0.59 and 0.2 and 0.07 and 0.5 and 0.11 and 0.61 and 0.24
Imax ([5]; concentration-effect curve of VUAA1, TEVC, V206W): 0.33 µA
EC50 [6]: 120 µM
Current induced by VUAA1 (median) ([6]; 500 µM VUAA1, TEVC, M210W): 2.12 µA
Response to VUAA1 compared with WT ([6]; 500 µM VUAA1, TEVC, M210W): significant decrease in the response
